Data on twelve compounds can be found in patent US7879835B2 (Korea Research Institute of Chemical Technology, priority 2004, dated 2011).

The subject of data set [1] is osteoclast (TRAP-positive multinuclear cell) formation. The data set can be described thus: Inhibitory effect on osteoclast formation (TRAP staining). The format is cell-based, mice. The note with it: compared to control; for Osteoclast formation inhibitory effects (%): 8 days culture with M-CSF and RANKL; for inhibition at 0.1 µM / inhibition at 0.3 µM / inhibition at 1 µM / inhibition at 3 µM: Mus musculus, Osteoclast, read-out: Osteoclast formation inhibitory effects (%); for inhibition at 0.1 µM: 0.1 μM (Table 4b); for inhibition at 0.3 µM: 0.3 μM (Table 4b); for inhibition at 1 µM: 1 μM (Table 4b); for inhibition at 3 µM: 3 μM (Table 4b). The protocol: The inhibitory activities of the alpha-arylmethoxyacrylate derivatives prepared in the above Examples on the proliferation of osteoclasts were examined as follows.
First, a bone marrow sample containing osteoclast pregenitor cells was isolated as follows. After sacrificing 7 to 9 week-old female mice by cervical dislocation, femur and tibia were excised aseptically while removing soft tissues attached thereto, After cutting both ends of the long bones, 1 ml of an enzyme solution containing 0.1% collagenase (Gibco), 0.05% trypsin and 0.5 mM EDTA (Gibco) was injected into the bone marrow cavity at one end using a syringe with a 26-gauge needle, and the bone marrow was then collected. After stirring the recovered bone marrow for 30 min, the precipitated bone marrow cells were collected, and cultured in α-minimum essential medium (α-MEM) supplemented with 10% FBS for 24 hrs. Then, non-adherent cells, which are osteoclast pregenitors, were aliquoted onto a culture plate at a density of 2×10^5 cells per well, and cultured for 8 days in α-MEM supplemented with 20 ng/ml of macrophage-colony stimulating factor (M-CSF, Peprotech, USA), 30 ng/ml RANKL (Peprotech, USA), and 0.3, 1.0 or 3 μM of the compounds of the Examples. Control cells were cultured at the same condition except not adding the compounds of the Examples.
After cell culture for 8 days, the adherent cells were washed with PBS and fixed with citrate-acetate-formaldehyde for 5 min. The fixed cells were incubated at 37° C. for 1 hr in acetate buffer (pH 5.0) containing naphthol AS-BI phosphate, fast Garnet GBC solution and 7 mM tartrate buffer (pH 5.0) to conduct TRAP (tartrate-resistant acid phosphatase) staining.

The subject of data set [2] is osteoclasts. The data set can be described thus: Inhibitory effect on resorption activity of osteoclast (resorption pit area on calcium phosphate-coated plate). The format is cell-based, mice. The settings on record: compared to control. The protocol:
After finishing culture, the plate was washed with distilled water, and 50 μl/well of 5% sodium hypochlorite was added to the plate. The plate was let alone for 5 min, washed again with distilled water to remove the adherent cells, and dried at room temperature. Then, the area of formed resorption pits was calculated by means of Image Pro Plus software (Media Cybernetics Ver. 3.0).

Data set [3] in a line: In vitro pharmacokinetics: metabolic stability in liver microsome. The format is in vitro ADME. The settings on record: human liver microsome 1 mg/ml, 20 μM compound; for half-life at 20 µM: liver microsomes. The protocol: Metabolic stabilities of the compounds of the Examples were examined by employing microsome samples prepared from the human liver.
Each 20 μM of the compounds were reacted with 1 mg/ml of liver microsome and the half-lives and one-hour stabilities of the compounds were determined.
(Microsomes from liver hold many membrane-bound enzymes, among them those of drug oxidation.)

Data set [4] relates to osteoclast pregenitor cells. The data set is described as follows: Cytotoxicity against osteoclast pregenitor (MTT). The format is cell-based, mice. The settings on record: 48 hrs, absorbance at 550 nm. The protocol: (§1) In order examine the toxicities of the compounds of the Examples against osteoclast pregenitors, pregenitor cells were aliquotted onto a 96-well microplate at a density of 2×10^5 cells per well, treated with 2, 4 and 8 μM of the test compounds, respectively, and cultured for 48 hrs in α-MEM supplemented with 20 ng/ml of M-CSF (Peprotech, USA) using 37° C. incubator (5% CO2). At 3 hrs before the culture was finished, 50 μl of MTT (3-(4,5-dimethylthiazol-2-yl)-2,5-diphenyltetrazolium bromide) solution (50 μg/ml) was added to each well. Upon completion of the cell culture, the supernatant was removed, and the precipitated dye was reacted with 100 μl of isopropanol/0.04 N HCl at room temperature for 30 min to dissolve it. The absorbances of the wells were measured at 550 nm, and the relative absorbance of each well relative to that of the control (set as 100) is shown in Table 6.

For data set [5], the system named is MG-63 cells. The data set is described as follows: Cytotoxicity test against osteoblast (MTT). The format is cell-based, human. The protocol: as §1
In order to examine the toxicity of the compounds of the Examples against osteoblasts, human osteosarcoma-derived cell line, MG-63 (ATCC No. CRL-1427) cells were treated with 0.1, 0.3, 1.0 and 3.0 μM of the compounds of the Examples, and cultured in DMEM supplemented with 10% FBS (fetal bovine serum).

As to `CO/C=C(/C(=O)OC)c1ccccc1COc1ccc(C2OCCCO2)cc1` [compound 161], the “Osteoclast formation inhibitory effects (%)” value in data set [1] (0.3 μM) is listed as 19%; in data set [1] (1.0 μM), 100%; in data set [1] (3.0 μM), 100%. The “Reduction (%) of the resorption pit area of osteoclasts” value (from here on “Reduction (%)”) in data set [2] (0.3 uM) worked out at 94%; in data set [2] (1 uM) it was 100%; in data set [2] (3 uM) it was 100%. The compound further yielded a Half-life in data set [3] of 45.6 min. Moreover, the One-hour stability in data set [3] was found to be 40%.

As to `CO/C=C(/C(=O)OC)c1ccccc1COc1ccc(N2CCCCC2)c(F)c1` [compound 416], in data set [1], the inhibition at 0.1 µM stood at 0%, the inhibition at 0.3 µM was found to be 75%, the inhibition at 1 µM is 100% and the inhibition at 3 µM was 100%. Further, the half-life (commonly how long it takes for the measured level to halve) at 20 µM in data set [3] came out at 43.9 min.

For `CO/C=C(/C(=O)OC)c1ccccc1COc1cccc(OCC=C(C)C)c1` [compound 217], the “Osteoclast formation inhibitory effects (%)” value is on record as 94% in data set [1] (0.3 μM), 100% in data set [1] (1.0 μM) and 100% in data set [1] (3.0 μM). Also, the “Reduction (%)” value in data set [2] (1 uM) and in data set [2] (3 uM) was 100% in each case. The “relative absorbance relative to that of the control (set as 100), MTT” value (shortened to “relative absorbance relative to that”) worked out at 90 in data set [4] (2 uM), 96 in data set [4] (4 uM) and 107 in data set [4] (8 uM).

In the case of `CO/C=C(/C(=O)OC)c1ccccc1COc1cccc(OCC(C)C)c1` [compound 219], the figures for the “Osteoclast formation inhibitory effects (%)” value in data set [1] (0.3 μM), in data set [1] (1.0 μM) and in data set [1] (3.0 μM) were 99%, 100% and 100%, respectively. Besides, the “Reduction (%)” value in data set [2] (1 uM) is 88%; in data set [2] (3 uM) it was 100%. Also, the entries for the “relative absorbance relative to that” value in data set [4] (2 uM), in data set [4] (4 uM) and in data set [4] (8 uM) were 90, 100 and 99, respectively.

Take `CO/C=C(/C(=O)OC)c1ccccc1COc1cccc(C(OC)OC)c1` [compound 133]: the “Osteoclast formation inhibitory effects (%)” value in data set [1] (0.3 μM) came out at 16%; in data set [1] (1.0 μM) it was 95%; in data set [1] (3.0 μM) it was 100%. In addition, the entries for the “Reduction (%)” value in data set [2] (0.3 uM), in data set [2] (1 uM) and in data set [2] (3 uM) were 75%, 99% and 100%, respectively. In addition, the “relative absorbance relative to that” value worked out at 93 in data set [4] (2 uM); 104 in data set [4] (4 uM); 102 in data set [4] (8 uM); 103 in data set [5] (0.11 uM); 108 in data set [5] (0.33 uM); 107 in data set [5] (1 uM). Also, the “relative absorbance relative to that” value in data set [5] (3 uM) is recorded as 103.

For `CO/C=C(/C(=O)OC)c1ccc(Cl)cc1COc1ccc(N2CCOCC2)cn1` [compound 394], in data set [1], the inhibition at 0.1 µM is 0%, the inhibition at 0.3 µM was found to be 98%, the inhibition at 1 µM was 100% and the inhibition at 3 µM was 100%. Also, in data set [5] (0.33 μM compound), the “relative absorbance (MTT) relative to control (set as 100)” value turned out to be 113. The “relative absorbance (MTT) relative to control (set as 100)” value in data set [5] (1 μM compound) was determined as 105. In data set [5] (3 μM compound), the “relative absorbance (MTT) relative to control (set as 100)” value was 110. In data set [3], the half-life at 20 µM came out at 55.5 ± 12 min.

For the compound `CO/C=C(/C(=O)OC)c1ccccc1COc1cccc(OC2CCCC2)c1` [compound 222], the “Osteoclast formation inhibitory effects (%)” value in data set [1] (0.3 μM) stood at 69%; in data set [1] (1.0 μM) it was 100%; in data set [1] (3.0 μM) it was 100%. The “Reduction (%)” value in data set [2] (0.3 uM) is given as 100.0%; in data set [2] (1 uM), 100%; in data set [2] (3 uM), 100%. Besides, the “relative absorbance relative to that” value in data set [4] (2 uM) is given as 97; in data set [4] (4 uM) it was 108; in data set [4] (8 uM), 101.

For the compound `CO/C=C(/C(=O)OC)c1ccccc1COc1cccc(C(F)CC(C)(F)F)c1` (stereo not shown) [compound 205], the “Osteoclast formation inhibitory effects (%)” value in data set [1] (0.3 μM) stood at 90%; in data set [1] (1.0 μM) it was 100%; in data set [1] (3.0 μM), 100%. Moreover, the “Reduction (%)” value in data set [2] (1 uM) and in data set [2] (3 uM) was 100% each time. Also, the “relative absorbance relative to that” value in data set [4] (2 uM) is recorded as 101; in data set [4] (4 uM), 109; in data set [4] (8 uM), 104.

For the compound `CO/C=C(/C(=O)OC)c1ccccc1COc1cccc(OCC2CC2)c1` [compound 215], the “Osteoclast formation inhibitory effects (%)” value worked out at 51% in data set [1] (0.3 μM), 100% in data set [1] (1.0 μM) and 100% in data set [1] (3.0 μM). The “Reduction (%)” value was found to be 97% in data set [2] (0.3 uM), 100% in data set [2] (1 uM) and 100% in data set [2] (3 uM). In addition, the figures for the “relative absorbance relative to that” value in data set [4] (2 uM), in data set [4] (4 uM) and in data set [4] (8 uM) were 96, 102 and 107, respectively.

With `CO/C=C(/C(=O)OC)c1ccccc1COc1cccc(N2CCN(C)CC2)c1` [compound 391], the inhibition at 0.3 µM in data set [1] stood at 4%. In data set [1], the inhibition at 1 µM stood at 50%. In data set [1], the inhibition at 3 µM was determined as 100%. Moreover, the “relative absorbance (MTT) relative to control (set as 100)” value in data set [5] (0.33 μM compound) was 104; in data set [5] (1 μM compound) it was 99; in data set [5] (3 μM compound), 111. This compound displayed a half-life at 20 µM in data set [3] of 107 ± 18.6 min.

In the case of `CO/C=C(/C(=O)OC)c1ccccc1COc1ccc(N(C)CC(C)C)cc1F` [Compound No. 426, (E)-methyl-2-[2-((4-(N-isobutyl-N-methylamino)-2-fluorophenoxy)methyl)phenyl]-3-methoxyacrylate], in data set [1], the inhibition at 0.1 µM turned out to be 25%, the inhibition at 0.3 µM came to 100%, the inhibition at 1 µM was determined as 100% and the inhibition at 3 µM came to 100%. Besides, the half-life at 20 µM in data set [3] was determined as 42.7 ± 2.1 min.

In the case of `CO/C=C(/C(=O)OC)c1ccccc1COc1cccc(C(F)CC(C)=O)c1` (stereo not shown) [compound 206], the “Osteoclast formation inhibitory effects (%)” value is given as 35% in data set [1] (0.3 μM), 100% in data set [1] (1.0 μM) and 100% in data set [1] (3.0 μM). Also, the “Reduction (%)” value in data set [2] (0.3 uM) was 97%; in data set [2] (1 uM), 100%; in data set [2] (3 uM), 100%. Further, the “relative absorbance relative to that” value is 102 in data set [4] (2 uM), 102 in data set [4] (4 uM) and 108 in data set [4] (8 uM).
